Reference: US6710083B2, “Method of treating palmar and plantar fibromatosis” (priority 2002, dated 2004)

What was measured:
[1] = test system: palmar fibromatosis (Dupuytren's contracture); test: Clinical treatment of patients with palmar fibromatosis (Dupuytren's contracture) with oral Accutane: initial dosage then maintenance dosage; format: in vivo, human
Protocol: (§1) Example 1 to 3 illustrate clinical effectiveness of the above described treatment method. An initial treatment and a maintenance treatment as described above were prescribed to the patients. It is noted that the patients described in the Examples were in the average weight range, therefore, an average dosage of 40 mg was used.
(§2) The patient was treated with orally administering Accutane® (Hoffmann-La Roche Inc., Nutley, New Jersey) about 40 mg daily for 14 days. Then the dosage was decreased to a maintenance dosage of 40 mg about twice a week for twelve months.
(§3) The patient was treated with orally administering Accutane® about 40 mg daily for 14 days. Then the dosage was decreased to 40 mg about twice a week for eight months.
(§4) The patient was placed on Accutane® 40 mg daily for two weeks.

[2] = Side effects, tolerability and laboratory values during the clinical treatment of palmar fibromatosis patients; format: in vivo, human
Protocol: as §1, §2, §3, §4

[3] = Example 2 patient, eight months of therapy

Compound: CC1=C(/C=C/C(C)=C/C=C/C(C)=C\C(=O)O)C(C)(C)CCC1 [Accutane, 13-cis retinoic acid]
- dimple overhead of the third methocarpal bone ([1]; Example 1 patient, both hands, after twelve months of therapy): disappeared
- fibrotic band, right hand ([1]; Example 1 patient, middle finger, 4 mm before treatment, 40 mg daily 14 days, then 40 mg about twice a week, after twelve months): 2 mm
- fibrotic band, left hand ([1]; Example 1 patient, middle finger, oral 40 mg daily for 14 days, then 40 mg about twice a week, after twelve months): completely disappeared
- pain and tenderness in the flexor tendon area of the hands ([1]; Example 1 patient, patient-described, after twelve months of therapy): completely abated
- range of fixed flexion of the left middle finger ([1]; Example 1 patient, 7 degree before treatment as printed, after twelve months of therapy): none
- fixed flexion of the right middle finger ([1]; Example 1 patient, fixed 15 degree before treatment as printed, after twelve months of therapy): 3 degree
- fibrotic ridge of the left hand ([1]; Example 2 patient, advanced disease, 40 mg daily 14 days, then 40 mg about twice a week for eight months): reduced in scope and size
- ring finger's disposition from the flexed position ([1]; Example 2 patient, left hand, about 90 degree before treatment, eight months of therapy): about 70 degree
- tenderness of the left hand caused by the contracture ([1]; Example 2 patient, patient-reported, eight months of therapy): less tender
- tenderness in the flexor tendon area ([1]; Example 3 patient, patient-described, nine months of treatment): less tenderness
- thickness of the fibrotic band ([1]; Example 3 patient, right hand, 40 mg daily two weeks, then 40 mg about twice a week for nine months): reduced
- restriction of extension of the ring finger ([1]; Example 3 patient, right hand, nine months of treatment): lessened
- deflection of the right hand ring finger ([1]; Example 3 patient, 30 degree before treatment, nine months of treatment): 20 degree
- further progression of the contracture ([1]; patients with either early stage disease or advanced conditions (general statement)): inhibits further progression of the contracture
- adverse side effects ([2]; Example 1 patient, 40 mg daily 14 days, then 40 mg about twice a week for twelve months): No adverse side effects were noted other than drying of lips
- blood chemistries ([2]; Example 1 patient, low maintenance dosage): remained normal
- laboratory abnormality [2, 3]: No laboratory abnormality was observed
- musculoskeletal pain [2, 3]: some musculoskelatal pain, which diminished after the third month of the treatment
- tolerability ([2]; Example 2 patient, lower maintenance dosage): well tolerated
- serious adverse side effects ([2]; patients diagnosed with Dupytren's contracture, described treatment (general statement)): no serious adverse side effects were observed
